# Measured values published in ChEMBL document CHEMBL1124274, “Synthesis, pharmacological action, and receptor binding affinity of the enantiomeric 1-(1-phenyl-3-methylcyclohexyl)piperidines” (J Med Chem, 1988).
# Biological target: T1, Glutamate receptor ionotropic, NMDA 2C (Rattus norvegicus, UniProt Q00961)
# Test: Inhibition activity against binding of phencyclidine receptor was determined by the displacement of [3H]-TCP of whole rat brain minus cerebellum.
# Format: tissue-based
# T1 sequence (Q00961 whole entry): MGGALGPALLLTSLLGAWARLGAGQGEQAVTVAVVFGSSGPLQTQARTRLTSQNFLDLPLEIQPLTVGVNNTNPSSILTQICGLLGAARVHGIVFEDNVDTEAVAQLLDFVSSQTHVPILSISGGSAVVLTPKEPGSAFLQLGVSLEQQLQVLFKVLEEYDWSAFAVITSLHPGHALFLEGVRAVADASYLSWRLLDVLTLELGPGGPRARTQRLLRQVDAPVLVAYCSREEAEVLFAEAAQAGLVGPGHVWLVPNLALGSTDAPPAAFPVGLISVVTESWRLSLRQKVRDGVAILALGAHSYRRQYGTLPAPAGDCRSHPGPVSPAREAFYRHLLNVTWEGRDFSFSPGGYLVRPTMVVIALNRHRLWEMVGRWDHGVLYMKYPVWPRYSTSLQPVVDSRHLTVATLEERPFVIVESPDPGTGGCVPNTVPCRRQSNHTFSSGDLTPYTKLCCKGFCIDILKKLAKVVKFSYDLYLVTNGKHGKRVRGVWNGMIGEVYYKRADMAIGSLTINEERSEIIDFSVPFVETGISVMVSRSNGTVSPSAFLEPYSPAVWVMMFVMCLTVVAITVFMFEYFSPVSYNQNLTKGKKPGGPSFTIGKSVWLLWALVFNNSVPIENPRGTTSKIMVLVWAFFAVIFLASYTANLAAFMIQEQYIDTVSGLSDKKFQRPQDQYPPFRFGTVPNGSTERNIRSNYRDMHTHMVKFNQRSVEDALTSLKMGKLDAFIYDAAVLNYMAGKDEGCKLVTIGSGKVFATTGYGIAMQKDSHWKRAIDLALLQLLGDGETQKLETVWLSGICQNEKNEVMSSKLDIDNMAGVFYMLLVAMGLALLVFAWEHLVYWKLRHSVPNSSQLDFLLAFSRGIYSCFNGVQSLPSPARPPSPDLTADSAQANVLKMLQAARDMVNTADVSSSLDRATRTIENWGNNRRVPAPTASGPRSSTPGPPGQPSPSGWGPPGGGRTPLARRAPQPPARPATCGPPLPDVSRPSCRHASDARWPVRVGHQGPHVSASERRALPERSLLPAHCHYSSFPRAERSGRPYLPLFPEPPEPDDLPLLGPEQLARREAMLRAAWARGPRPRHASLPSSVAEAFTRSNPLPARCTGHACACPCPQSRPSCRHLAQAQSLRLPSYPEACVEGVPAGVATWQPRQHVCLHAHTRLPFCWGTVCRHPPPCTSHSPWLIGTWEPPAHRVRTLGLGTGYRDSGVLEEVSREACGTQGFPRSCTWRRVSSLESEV
row,Structure (SMILES),IC50 [nM]
1,c1ccc(C2(N3CCCCC3)CCCCC2)cc1 [PHENCYCLIDINE],600

# Biological target: T1, Glutamate receptor ionotropic, NMDA 2C
# Test: Binding affinity against phencyclidine receptor was determined by the displacement of [3H]TCP of whole rat brain minus cerebellum.
# Format: tissue-based
row,Structure (SMILES),Ki [nM]
1,C[C@H]1CCC[C@@](c2ccccc2)(N2CCCCC2)C1,3300
2,C[C@@H]1CCC[C@](c2ccccc2)(N2CCCCC2)C1,820
3,C[C@@H]1CCC[C@@](c2ccccc2)(N2CCCCC2)C1,6800
4,C[C@H]1CCC[C@](c2ccccc2)(N2CCCCC2)C1,170
5,CC1CCCN(C2(c3ccccc3)CCCCC2)C1 (stereo in doubt; (+)),60
6,CC1CCCN(C2(c3ccccc3)CCCCC2)C1 (stereo in doubt; (-)),2150
7,c1ccc(C2(N3CCCCC3)CCCCC2)cc1 [PHENCYCLIDINE],60
